Results: patent US5840859A, “(Aminostyryl)pyridinium compounds for radiolabelling cell membranes” (Research Corporation Technologies, Inc., priority 1996, dated 1998)

How the values were obtained:
[1] = Viability of labeled lymphocytes (Trypan Blue exclusion test); assay type: cell-based, dog and rat; details: before and after radiolabeling
Excerpt: (§1) Peripheral blood lymphocytes (PBLs) from dogs and rats as well as rat splenic lymphocytes were labeled in high yields with either 4a or 4b (Table 2). Viability of labeled lymphocytes was >90% both before and after radiolabeling (Trypan Blue exclusion test).

mixed leukocytes = assay: Mixed leukocyte labeling yield; assay type: cell-based, canine; details: for Mixed leukocyte labeling yield: 125I labeled, average, 10-30 μCi, 250-325 Ci/mmol
Experimental: Labeling of mixed leukocytes (harvested from 20 mL canine blood) with 4a-d was performed using five different procedures: 1) labeling in Diluent C (a commercial non-ionic cell labeling media developed by Zynaxis Co. that is not approved for human use) after two saline washes of the cell pellet; 2) labeling in saline after two saline washes of the cell pellet; 3) labeling in saline with no saline washes of the cell pellet; 4 and 5) labeling in ether 10% or 100% platelet poor plasma (PPP).
Unwashed mixed leukocytes in 1.5 mL 10% PPP in saline were also tested. […]
This was evaporated to dryness under vacuum in a speed vac and reconstituted into 30 ul ethanol. Forty milliliters of canine blood was drawn into a 60 mL syringe containing 6.5 mL acetate-citrate-dextrose solution. To this was added 5.5 mL 2% methyl cellulose in saline. The contents of the syringe were gently mixed by several inversions of the syringe and the syringe placed vertically, needle end up, for 45 minutes to allow the red blood cells to settle. The plasma was drawn off and placed into a 50 mL Falcon tube. The tube was centrifuged at 1100 rpm for 15 minutes to pellet the leukocytes. The plasma was removed and the cells resuspended in 2 mL saline. In a 1 mL plastic microcentrifuge was placed 0.5 mL saline. […] The cells were then underlayered with 7.5 mL of platelet poor plasma and centrifuged at 1600 rpm for seven minutes to pellet the cells. The supernatant was removed, the cells resuspended in 10 mL saline, and transferred to a new tube. The supernatant, cells, and labeling tube were counted for radioactivity. The cells were centrifuged again at 1600 rpm for 7 minutes, the supernatant removed, and the cells resuspended.
A sample of canine blood (20 mL) was drawn into a 60 mL syringe containing 3 mL acetate-citrate-dextrose (ACD) solution. To this was added 3 mL 2% methyl cellulose in saline. The contents of the syringe were gently mixed by several inversions, and the syringe was then placed vertically, needle end up, for 45 min to allow the red blood cells to settle. The plasma was drawn off and transferred to a 50 mL Falcon tube. The tube was centrifuged at 1100 rpm for 15 min to pellet the leukocytes. The plasma was removed and the cells resuspended in 10 mL saline. The tube was centrifuged at 1600 rpm for 7 min, the supernatant removed, and the cells resuspended in 10 mL saline and recentrifuged at 1600 rpm for 7 min. The supernatant was then removed and the cells resuspended in 2 mL Diluent C. Into a 1 mL plastic microcentrifuge tube was placed 0.5 mL Diluent C. […] The indium complex in Diluent C was immediately added to the leukocytes and the cells were placed vertically on a Nutator rocking apparatus and rocked gently for 30 min at room temperature. The cells were then underlayered with 5 mL of platelet poor plasma and centrifuged at 1600 rpm for 7 min to pellet the cells. The supernatant was removed, the cells resuspended in 10 mL saline, and transferred to a new tube. The supernatant, cells, and labeling tube were counted for radioactivity. The cells were centrifuged again at 1600 rpm for 7 min, the supernatant removed, and the cells resuspended.

rat splenic lymphocytes [2] = assay: Lymphocyte labeling yield, rat splenic lymphocytes; assay type: cell-based
Experimental: as §1
A 400 g Sprague-Dawley rat was sacrificed to remove the spleen (1.133 g). The spleen was perfused with phosphate buffered saline to remove the lymphocytes. The lymphocytes in 10 mL PBS were split into two equal portions and each portion was layered onto 5 mL of Lympholyte-Rat (Cedar Lane Laboratories Limited, Ontario, Canada) in a separate 15 mL centrifuge tube. The tubes were centrifuged at 2700 rpm for 20 minutes at room temperature. The lymphoctyes appeared as a layer at the interface of the saline and Lympholyte-Rat layers. The saline layer was removed and discarded. The lymphocyte containing layer from each tube was removed and transferred to a single 50 mL Falcon tube. To this tube was added 10 mL saline and the tube centrifuged for 7 minutes at 1600 rpm. The supernatant was removed, the cells resuspended in 10 mL saline, and centrifuged at 1600 rpm for 7 minutes. The supernatant was removed and the cells suspended in 1 mL saline. […] […] To these cells was added 20 ul of an ethanolic solution of 3-[4-[2-(N,N-dihexylamino)phenyl]ethyenyl]pyridino-E-1-[^125 I]-iodo-propene (15.6 uCi) dissolved in 500 ul of saline. The cells were place vertically on a Nutator rocking apparatus and rocked gently for 20 minutes at room temperature. The cells were then underlayered with 7.5 mL of saline and centrifuged at 1600 rpm for seven minutes to pellet the cells. The supernatant was removed, the cells resuspended in 10 mL saline, and transferred to a new tube. The supernatant, cells, and labeling tube were counted for radioactivity. The cells were centrifuged again at 1600 rpm for 7 minutes, the supernatant removed, and the cells resuspended. After the second centrifugation, 11.9uCi (77%) of ^131 I was bound to the lymphocytes. After labeling, 12% of the cells were dead by the trypan blue exclusion test.

mononuclear leukocytes = assay: Mononuclear leukocyte labeling yield; assay type: cell-based; details: harvested from 20 mL canine blood via isolymph method
Experimental: Using ^125 I-4b and ^131 I-4b, mononuclear leukocytes harvested from 20 mL canine blood via the isolymph method (sodium diatrizoste and Ficol 400, d=1.077) were labeled in 77% and 85% yields, respectively. Thus, the present compounds can label both lymphocytes and mixed leukocytes in high yields, and that the latter can be used to image sites of focal inflammation.

rat splenic lymphocytes [3] = assay: Rat splenic lymphocyte survival after labeling (Trypan blue exclusion test); assay type: cell-based; details: Example 11, trypan blue
Experimental: (§2) A 400 g Sprague-Dawley rat was sacrificed to remove the spleen (1.133 g). The spleen was perfused with phosphate buffered saline to remove the lymphocytes. The lymphocytes in 10 mL PBS were split into two equal portions and each portion was layered onto 5 mL of Lympholyte-Rat (Cedar Lane Laboratories Limited, Ontario, Canada) in a separate 15 mL centrifuge tube. The tubes were centrifuged at 2700 rpm for 20 minutes at room temperature. The lymphoctyes appeared as a layer at the interface of the saline and Lympholyte-Rat layers. The saline layer was removed and discarded. The lymphocyte containing layer from each tube was removed and transferred to a single 50 mL Falcon tube. To this tube was added 10 mL saline and the tube centrifuged for 7 minutes at 1600 rpm. The supernatant was removed, the cells resuspended in 10 mL saline, and centrifuged at 1600 rpm for 7 minutes. The supernatant was removed and the cells suspended in 1 mL saline. Using a hemocytometer, a total of 5 million lymphocytes were counted. […] To these cells was added 20 ul of an ethanolic solution of 3-[4-[2-(N,N-dihexylamino)phenyl]ethyenyl]pyridino-E-1-[^125 I]-iodo-propene (15.6 uCi) dissolved in 500 ul of saline. The cells were place vertically on a Nutator rocking apparatus and rocked gently for 20 minutes at room temperature. […] The supernatant, cells, and labeling tube were counted for radioactivity. […]

[4] = as above; assay type: cell-based; details: rat, splenic lymphocytes; Example 11, trypan blue; 12% dead before labeling; read-out: dead cells after labeling
Experimental: as §2

[5] = system: sodium urate induced abscess in the stifle joint; assay: Localization of labeled leukocytes in dogs having a sodium urate induced abscess in the stifle joint (aspirate, gamma camera images)
Excerpt: Mixed leukocytes labeled with 4b and ^111 In-oxine labeled mixed leukocytes were compared in dogs having a sodium urate-induced inflammation in the left stifle joint. […]

Q: What does the source list for `CCCCN(CCCC)c1ccc(/C=C/c2cc[n+](C/C=C/[125I])cc2)cc1` [Compound 4a]?
A: viability [1]: > 90%; Mixed leukocyte labeling yield (mixed leukocytes; 10% PPP in saline): 41%; Mixed leukocyte labeling yield (mixed leukocytes; Diluent C): 75%; Mixed leukocyte labeling yield (mixed leukocytes; saline, 2 washes of pellet): 72%; Mixed leukocyte labeling yield (mixed leukocytes; saline, no washes of pellet): 71%; Leukocyte labeling (in words) (mixed leukocytes; Diluent C, or saline with or without washes of the cell pellet): labeled leukocytes in high yield; Lymphocyte labeling (in words) (rat splenic lymphocytes [2]; PBLs from dogs and rats and rat splenic lymphocytes): high yields; Lymphocyte labeling yield (rat splenic lymphocytes [2]; Rat spleen, Lympholyte-Rat, 63-300 × 10^6 cells, PBS, 125I, average): 71%

Q: Which “Mononuclear leukocyte labeling yield” value (mononuclear leukocytes) does the source give for `CCCCCCN(CCCCCC)c1ccc(/C=C/c2cc[n+](C/C=C/[125I])cc2)cc1` [^125 I-4b, 3-[4-[2-(N,N-dihexylamino)phenyl]ethyenyl]pyridino-E-1-[^125 I]-iodo-propene] here?
A: The value was 77%.

Q: What about the “effect of labeling on cell survival” value (rat splenic lymphocytes [3]) of the same compound?
A: The value was “the labeling did not affect cell survival”.

Q: What about the cytotoxicity [4] of the same compound?
A: The cytotoxicity was 12%.

Q: And the Labeling Yield (mixed leukocytes; 1.5 ml saline, pellet not washed)?
A: Its Labeling Yield is 80%.

Q: What about the Labeling Yield (mixed leukocytes; 1.5 ml saline, pellet washed with 1×10 mL saline) of the same compound?
A: Its Labeling Yield is 84%.

Q: What about the Labeling Yield (mixed leukocytes; 1.5 ml saline, pellet washed with 2×10 mL saline) of the same compound?
A: Its Labeling Yield is 82%.

Q: What about the “Labeling Yield” value (mixed leukocytes; Table 3 Experiment 1, 4b 250 Ci/mmol, Diluent C after 2 × 10 mL saline washes) of the same compound?
A: The value was 84%.

Q: What about the “Labeling Yield” value (mixed leukocytes; Table 3 Experiment 2, 4b footnotes a,c (250 / 1000 Ci/mmol)) of the same compound?
A: Its value is 88%.

Q: And the Labeling Yield (mixed leukocytes; unwashed, 1.5 mL 10% PPP in saline)?
A: Its Labeling Yield is 83%.

Q: What about the “radioactivity bound to the lymphocytes (labeling yield)” value (rat splenic lymphocytes [2]; Example 11, 5 million lymphocytes, saline, 15.6 uCi, 20 min, room temperature) of the same compound?
A: Its value is 77%.

Q: And the “radioactivity bound to the lymphocytes” value (rat splenic lymphocytes [2]; Example 11, of 15.6 uCi added)?
A: The value was 11.9 uCi.

Q: What about the “131I/111In or 125I/111In in aspirate” value ([5]; Experiment 1) of the same compound?
A: Its value is 1.65.

Q: And the “% aspirate radioactivity cell bound” value ([5]; Experiment 1)?
A: Its value is 98%.

Q: What about the “% inj. dose in abscess aspirate” value ([5]; Experiment 1, injected 84 μCi 125I-4b, 500 μCi 111In-oxine, Diluent C) of the same compound?
A: The value was 0.594%.

Q: What about the “131I/111In or 125I/111In in aspirate” value ([5]; Experiment 2) of the same compound?
A: The value was 6.0.

Q: What about the “% aspirate radioactivity cell bound” value ([5]; Experiment 2) of the same compound?
A: The value was 96%.

Q: And the “% inj. dose in abscess aspirate” value ([5]; Experiment 2, injected 66 μCi 125I-4b, 312 μCi 111In-oxine)?
A: The value was 0.527%.

Q: What about the “localization of labeled leukocytes in induced inflammatory site/abscess, compared with 111In-oxine (111In-labeled) leukocytes” value ([5]; sodium urate induced abscess, dog) of the same compound?
A: Its value is “higher degree of localization”.
